Test results published in patent publication US11660291B2, “IL-8 inhibitors for use in the treatment of some sarcomas” (Dompe' Farmaceutici S.P.A., priority 2017, dated 2023).
“Also recorded” adds a separate entry of the source.

What was measured:
OS-17 cells = assay: Transwell migration and invasion assays, serum as chemoattractant, small molecule inhibitors; assay type: cell-based, human; settings: 24 hours
Description: OS cells were cultured on a transwell chamber membrane, then subjected transferred to a chamber containing RPMI with 2.5% FBS (pos ctl) or RPMI alone (neg ctl). Other wells containing 2.5% FBS in the bottom chamber were treated with 1 uM sc144, 10 nM D[…], or both. After 24 hours, top chambers were scraped clean, membranes stained and cells counted. Transwell migration and invasion assays. 1×10^4 OS cells were plated into transwell inserts (either Falcon #353097 for migration or Corning #354483 for Matrigel invasion assays) containing appropriate chemotactic factors. After 24 hours of incubation, transwells were drained and upper chambers/membrane upper surfaces scraped using a polyester swab. Membranes were stained using a Dif-Quik Stain Set (Siemens #B4132-1A) and dried, then imaged on an inverted microscope. Cells were quantified using Adobe Photoshop counting tools. For experiments involving IL-6 and IL-8 chemotaxis, media contained 1% FBS in both chambers, with recombinant protein added to the bottom chamber to make 50 ng/ml IL6 (BioLegend #570804) or 100 ng/ml IL-8 (BioLegend #574204). For experiments using serum as a chemoattractant, top chambers contained RPMI only, while bottom chambers contained 1% or 2.5% serum. Where noted, 20 ug/ml of neutralizing antibodies to either IL6 (Abcam #AB6672), IL-8 (Abcam #AB18672), or both were added to both upper and lower chambers. […]

pFAK = assay: PD analysis in lung tissue, IHC for pFAK; assay type: in vivo, mouse
Description: Mice treated with injections of either DF2156A or sc144 daily were euthanized 24 hours subsequent to their 14th dose of drug. Lungs harvested from those mice were processed using standard FFPE, then sectioned and stained with IHC for either pFAK (downstream of IL-8) or pSTAT3 (downstream of IL-6).
To evaluate the functional importance of IL-6 and IL-8 pathways to OS lung metastasis, the present inventors used the xenograft models. Balb-SCID mice inoculated via tail vein with 1×10^6 luciferase-labeled OS-17 cells received treatment with sc144 (the gp130 inhibitor), DF2156A (the CXCR1/2 inhibitor), or both. Mice continued to receive treatment for 42 days, after which treatment stopped. Intravital imaging for in vivo assessment of tumor burden was performed at 14 and 24 days using standard bioluminescent techniques. […] Two mice from each single-agent treatment group were euthanized 24 hours after the 14th dose of drug to perform pharmacodynamics (PD) assessment of target inhibition.

## C[C@@H](C(=O)NS(C)(=O)=O)c1ccc(OS(=O)(=O)C(F)(F)F)cc1 [DF2156A]
OS-17 cells; serum (2.5% FBS) as chemoattractant, 1 uM sc144, 10 nM DF2156A (FIG. 2)
  directional migration and invasion: suffices to prevent directional migration and invasion
OS-17 cells; serum as chemoattractant, transwell
  amount of migration of OS cells: significantly decreased the amount of migration
pFAK; 24 hours after the 14th daily dose (dosing trough)
  pFAK IHC staining in lung (target inhibition, downstream of IL-8): sustained target inhibition; also recorded: reduced the amount of activation seen
pFAK; 24 hours after the 14th daily dose (trough concentrations)
  number of infiltrating cells in lung: reduced
